The values that follow come from publication PMC5296225 (European journal of medicinal chemistry, 2016).

One assay concerns Saporin L3 (SAP). It counts as biochemical, Saponaria officinalus.
For assay [1], the target named is T1, SAP (saporin L3) (Saponaria officinalis, UniProt Q2QEH4). Nature of the assay: Competitive inhibition of saporin L3 with stem-loop RNA A10. It counts as biochemical.
The target in assay [2] is T1, SAP (saporin L3). Nature of the assay: Ki* quoted in Table 1 from ref 19. It counts as biochemical. Conditions: read-out: Inhibition constant Ki* (nM), value taken from Schramm et al. [19]; cited from earlier work.
The test system of the next assay is SAP and SAP-A14C. Nature of the assay: Inhibition of SAP hydrolysis of yeast tRNA and rabbit rRNA. The assay is classed as biochemical, Saponaria officinalus. Conditions: rabbit 80S ribosome 100 nM or yeast tRNA 1.0 mg/mL; 10 min preincubation.

T1 sequence (Q2QEH4 22-280 limits assumed): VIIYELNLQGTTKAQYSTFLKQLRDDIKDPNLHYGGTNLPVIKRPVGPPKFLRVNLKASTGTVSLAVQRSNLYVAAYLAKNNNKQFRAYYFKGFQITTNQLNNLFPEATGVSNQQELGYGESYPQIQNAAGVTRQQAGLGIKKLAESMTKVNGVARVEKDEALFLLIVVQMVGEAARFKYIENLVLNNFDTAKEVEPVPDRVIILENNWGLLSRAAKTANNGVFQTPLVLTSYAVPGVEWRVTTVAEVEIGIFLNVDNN

As for PDpGpDIApPD [Compound 39], in the assay on Saporin L3 (SAP), the “inhibition of SAP (in words)” value is given as “weak inhibitors”. `CO[C@@H]1[C@H](O)[C@@H](COP(=O)(O)O[C@H]2CN(Cc3c[nH]c4c(N)ncnc34)C[C@@H]2COP(=O)(O)O[C@H]2[C@@H](OC)[C@H](n3cnc4c(=O)[nH]c(N)nc43)O[C@@H]2CO)O[C@H]1n1cnc2c(=O)[nH]c(N)nc21` [compound 32, GpDIApG (2'-O-methyl guanosines)] had a Ki at SAP (saporin L3) [1] of 0.033 ± 0.0017 µM. On to “serinol analogue of PDpDIApGpPD (Ser = serinol; PD = propanediol) [PDpSerpGpPD]”, for which the Ki at SAP (saporin L3) [2] was 43.2 ± 1.1 nM. Take GpGpDIApPD [Compound 41]: the “inhibition of SAP (in words)” value in the assay on Saporin L3 (SAP) is on record as “weak inhibitors”. Turning to PDpApGpPD [reference compound], affinity on Saporin L3 (SAP) (RNA A10 substrate, slow-onset dissociation constant) was put at a Ki of 16.1 µM. In the case of PDpHomoSerpGpPD [Compound 52], the “inhibition of SAP (in words)” value in the assay on Saporin L3 (SAP) is on record as “good inhibitors”. With “catalytically inactive substrate analogue PDpApGpPD (adenosine in place of DIA; PD = propanediol)”, at SAP (saporin L3) [1] (read-out: Inhibition constant Ki*), the Ki came out at 16 µM.

Take PDpDIApGpPD [Compound 2]: in the assay with SAP and SAP-A14C, the “inhibition of hydrolysis of yeast tRNA and rabbit rRNA by SAP and SAP-A14C” value is “inhibits”.
